Test results as given in patent US7452887B2, “Quinoline- and isoquinoline-based compounds exhibiting ATP-utilizing enzyme inhibitory activity, and compositions, and uses thereof” (Amphora Discovery Corporation, priority 2004, dated 2008).

Columns and labels:
Test in all cases: HTS ATP-utilizing enzyme assay, off-chip mobility-shift (Caliper HTS 250)
Format in all cases: biochemical
Conditions in all cases: test compound 10 μM, kinase listed = active (greater than six-sigma from the mean activity of inactive compounds)
PRAK = target: T1, PRAK (Homo sapiens, UniProt Q8IW41)
T1 sequence (Q8IW41 1-473): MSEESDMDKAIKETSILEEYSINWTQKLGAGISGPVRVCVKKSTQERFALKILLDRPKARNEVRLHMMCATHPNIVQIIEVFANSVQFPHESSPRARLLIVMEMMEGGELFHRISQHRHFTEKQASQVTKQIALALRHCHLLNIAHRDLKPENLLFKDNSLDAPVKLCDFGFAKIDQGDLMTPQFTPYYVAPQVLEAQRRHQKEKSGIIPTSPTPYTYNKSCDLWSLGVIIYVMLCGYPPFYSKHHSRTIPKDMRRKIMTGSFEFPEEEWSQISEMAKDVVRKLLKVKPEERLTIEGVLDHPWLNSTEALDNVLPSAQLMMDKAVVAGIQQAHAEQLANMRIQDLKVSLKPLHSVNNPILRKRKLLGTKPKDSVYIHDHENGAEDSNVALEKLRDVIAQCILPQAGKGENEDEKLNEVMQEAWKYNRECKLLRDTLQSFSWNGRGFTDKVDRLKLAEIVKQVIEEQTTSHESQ
Summary of the method: (§1)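 The ratio of peptide substrate to phosphorylated product, measured by microfluidic mobility shift, gave percent inhibition. Reactions contained enzyme, peptide substrate and compound at 10 μM in HEPES pH 7.5 buffer, ran 2.5 hrs at 20° C. to 22° C., and were quenched with EDTA.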

C-TAK1 = C-TAK1 (Homo sapiens, UniProt P27448)
Summary of the method: as §1

NEK2 = target: T2, NEK2 (Homo sapiens, UniProt P51955)
T2 sequence (P51955 1-445): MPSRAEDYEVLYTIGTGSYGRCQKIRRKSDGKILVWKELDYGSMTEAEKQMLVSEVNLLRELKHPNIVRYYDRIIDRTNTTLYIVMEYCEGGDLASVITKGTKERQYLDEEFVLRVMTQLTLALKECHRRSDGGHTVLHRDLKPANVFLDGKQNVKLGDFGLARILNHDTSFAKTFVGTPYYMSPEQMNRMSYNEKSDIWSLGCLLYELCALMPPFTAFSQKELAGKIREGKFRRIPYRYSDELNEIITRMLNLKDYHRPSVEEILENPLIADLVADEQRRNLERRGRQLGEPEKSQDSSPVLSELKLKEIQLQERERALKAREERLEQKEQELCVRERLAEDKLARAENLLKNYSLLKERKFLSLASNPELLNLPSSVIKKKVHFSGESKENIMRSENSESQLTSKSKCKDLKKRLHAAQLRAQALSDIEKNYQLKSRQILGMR
Summary of the method: as §1

KIT = KIT (Homo sapiens, UniProt P10721)
Summary of the method: as §1

C-TAK1, sequence (P27448 whole entry): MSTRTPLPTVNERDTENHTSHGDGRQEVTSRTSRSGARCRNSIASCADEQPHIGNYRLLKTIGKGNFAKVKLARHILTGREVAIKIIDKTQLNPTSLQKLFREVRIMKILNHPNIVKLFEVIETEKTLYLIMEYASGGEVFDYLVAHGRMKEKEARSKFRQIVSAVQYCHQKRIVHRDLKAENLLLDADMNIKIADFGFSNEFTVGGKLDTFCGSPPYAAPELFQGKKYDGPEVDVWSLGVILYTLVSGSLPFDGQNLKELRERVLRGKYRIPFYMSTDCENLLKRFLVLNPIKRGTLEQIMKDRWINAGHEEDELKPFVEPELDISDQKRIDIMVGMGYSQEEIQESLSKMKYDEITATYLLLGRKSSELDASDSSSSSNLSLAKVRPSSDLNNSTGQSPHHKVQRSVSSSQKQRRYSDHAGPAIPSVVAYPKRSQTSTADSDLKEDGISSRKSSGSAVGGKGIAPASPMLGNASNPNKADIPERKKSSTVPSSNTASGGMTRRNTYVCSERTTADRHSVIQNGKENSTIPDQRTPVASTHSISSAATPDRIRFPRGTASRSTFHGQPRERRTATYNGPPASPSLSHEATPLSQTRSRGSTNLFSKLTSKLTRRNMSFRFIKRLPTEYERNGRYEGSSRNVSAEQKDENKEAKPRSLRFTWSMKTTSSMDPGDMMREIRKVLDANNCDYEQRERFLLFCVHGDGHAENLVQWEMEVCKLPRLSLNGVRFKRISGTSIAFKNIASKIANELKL
KIT, sequence (P10721 26-976): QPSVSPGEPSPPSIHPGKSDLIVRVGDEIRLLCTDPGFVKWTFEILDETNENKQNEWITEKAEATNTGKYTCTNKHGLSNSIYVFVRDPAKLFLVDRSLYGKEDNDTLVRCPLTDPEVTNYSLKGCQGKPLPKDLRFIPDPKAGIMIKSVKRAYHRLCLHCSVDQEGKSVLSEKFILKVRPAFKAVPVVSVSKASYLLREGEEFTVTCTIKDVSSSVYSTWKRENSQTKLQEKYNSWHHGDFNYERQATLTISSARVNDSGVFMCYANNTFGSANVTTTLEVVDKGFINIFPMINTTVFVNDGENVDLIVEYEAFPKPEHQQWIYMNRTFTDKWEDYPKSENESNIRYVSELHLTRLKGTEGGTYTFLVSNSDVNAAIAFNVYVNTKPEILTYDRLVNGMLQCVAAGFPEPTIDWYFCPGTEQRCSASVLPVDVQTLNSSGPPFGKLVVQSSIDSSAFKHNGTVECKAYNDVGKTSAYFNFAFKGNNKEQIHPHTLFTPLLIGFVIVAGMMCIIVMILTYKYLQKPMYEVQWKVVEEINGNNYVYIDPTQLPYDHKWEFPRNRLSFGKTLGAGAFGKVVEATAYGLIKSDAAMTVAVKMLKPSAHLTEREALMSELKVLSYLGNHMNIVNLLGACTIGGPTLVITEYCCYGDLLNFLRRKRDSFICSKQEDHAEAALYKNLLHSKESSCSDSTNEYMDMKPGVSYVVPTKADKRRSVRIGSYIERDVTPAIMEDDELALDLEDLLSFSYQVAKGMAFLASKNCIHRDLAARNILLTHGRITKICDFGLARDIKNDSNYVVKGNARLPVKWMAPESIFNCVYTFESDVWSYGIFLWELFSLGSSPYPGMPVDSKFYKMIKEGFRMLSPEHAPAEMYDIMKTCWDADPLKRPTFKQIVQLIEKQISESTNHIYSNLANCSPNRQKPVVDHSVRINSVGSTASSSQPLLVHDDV

Row | Activity (PRAK) | Activity (C-TAK1) | Activity (NEK2) | Activity (KIT) | SMILES
1 | PRAK | C-TAK1 | NEK2 | – | CN1CCN(c2ccc(Nc3ccnc4ccc(-c5ccc(F)cc5)cc34)cc2)CC1 [6-(4-fluorophenyl)-N-(4-(4-methylpiperazin-1-yl)phenyl)quinolin-4-amine]
2 | PRAK | – | – | KIT | COc1ccc(-c2ccc3nccc(Nc4ccc(N5CCNCC5)cc4)c3c2)cc1 [6-(4-methoxyphenyl)-N-(4-(piperazin-1-yl)phenyl)quinolin-4-amine]
3 | PRAK | – | – | KIT | c1ccc(-c2ccc3nccc(Nc4ccc(N5CCNCC5)cc4)c3c2)cc1 [6-phenyl-N-(4-(piperazin-1-yl)phenyl)quinolin-4-amine]
4 | PRAK | – | NEK2 | – | Cc1ccccc1-c1ccc2nccc(Nc3ccc(N4CCN(C)CC4)cc3)c2c1 [N-(4-(4-methylpiperazin-1-yl)phenyl)-6-o-tolylquinolin-4-amine]

The remaining lines, values behind:

Row | SMILES | Activity (PRAK) | Activity (C-TAK1) | Activity (NEK2) | Activity (KIT)
5 | CN1CCN(c2ccc(Nc3ccnc4ccc(-c5ccc(O)cc5)cc34)cc2)CC1 [4-(4-(4-(4-methylpiperazin-1-yl)phenylamino)quinolin-6-yl)phenol] | PRAK | – | – | –
6 | COc1ccc(-c2ccc3nccc(N(C)c4ccc(N5CCN(C)CC5)cc4)c3c2)cc1 [6-(4-methoxyphenyl)-N-methyl-N-(4-(4-methylpiperazin-1-yl)phenyl)quinolin-4-amine] | – | – | – | KIT
7 | CN1CCN(c2ccc(Nc3ccnc4ccc(-c5cccc6ccccc56)cc34)cc2)CC1 [N-(4-(4-methylpiperazin-1-yl)phenyl)-6-(naphthalen-1-yl)quinolin-4-amine] | PRAK | C-TAK1 | NEK2 | KIT
8 | CN1CCN(c2ccc(Nc3ccnc4ccc(-c5ccc6ccccc6c5)cc34)cc2)CC1 [N-(4-(4-methylpiperazin-1-yl)phenyl)-6-(naphthalen-2-yl)quinolin-4-amine] | PRAK | C-TAK1 | NEK2 | –
9 | CN1CCN(c2ccc(Nc3ccnc4ccc(-c5ccncc5)cc34)cc2)CC1 [N-(4-(4-methylpiperazin-1-yl)phenyl)-6-(pyridin-4-yl)quinolin-4-amine] | PRAK | – | NEK2 | KIT
